Experimental data published in US20050245399A1, “Pyrazole derivatives as herbicidal compositions containing them” (ISHIHARA SANGYO KAISHA, LTD., priority 2004, published 2005).

Tests used:
Format in all cases: in vivo
[1] = test system: barnyardgrass (Echinochloa crus-galli L.): ECHCG; experiment: Test Example 1 pre-emergence herbicidal activity, ECHCG; conditions: visually observed 20th to 23rd day after application
How it was run: (§1)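 Pots of upland soil were sown, and one day later WP or EC formulations at set active-ingredient rates were sprayed pre-emergence in 500 L/ha water. Growth control scored visually 20–23 days after application, 0 (as untreated) to 100 (complete kill).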

[2] = test system: crabgrass (Digitaria sanguinalis L.): DIGSA; experiment: Test Example 1 pre-emergence herbicidal activity, DIGSA; conditions: visually observed 20th to 23rd day after application
How it was run: as §1

[3] = test system: green foxtail (Setaria viridis L.): SETVI; experiment: Test Example 1 pre-emergence herbicidal activity, SETVI; conditions: visually observed 20th to 23rd day after application
How it was run: as §1

[4] = test system: redroot pigweed (Amaranthus retroflexus L.): AMARE; experiment: Test Example 1 pre-emergence herbicidal activity, AMARE; conditions: visually observed 20th to 23rd day after application
How it was run: as §1

[5] = test system: prickly sida (Sida spinosa L.): SEDSP; experiment: Test Example 1 pre-emergence herbicidal activity, SIDSP; conditions: visually observed 20th to 23rd day after application
How it was run: as §1

[6] = test system: velvetleaf (Abutilon theophrasti): ABUTH; experiment: Test Example 1 pre-emergence herbicidal activity, ABUTH; conditions: visually observed 20th to 23rd day after application
How it was run: as §1

[7] = test system: rice (Oryza sativa L.): ORYSA; experiment: Test Example 1 pre-emergence herbicidal activity, ORYSA; conditions: visually observed 20th to 23rd day after application
How it was run: as §1

[8] = test system: wheat (Triticum aestivum L.): TRZAX; experiment: Test Example 1 pre-emergence herbicidal activity, TRZAX; conditions: visually observed 20th to 23rd day after application
How it was run: as §1

[9] = test system: corn (Zea mays L.): ZEAMX; experiment: Test Example 1 pre-emergence herbicidal activity, ZEAMX; conditions: visually observed 20th to 23rd day after application
How it was run: as §1

[10] = test system: soybean (Glycine max Merr.): GLXMA; experiment: Test Example 1 pre-emergence herbicidal activity, GLXMA; conditions: visually observed 20th to 23rd day after application
How it was run: as §1

[11] = test system: barnyardgrass (Echinochloa crus-galli L.), ECHCG; experiment: Test Example 2 post-emergence (foliage treatment) herbicidal activity, ECHCG; conditions: 63 g a.i./ha
How it was run: (§2)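 Plants grown in upland soil pots were sprayed on foliage at set leaf stages (ECHCG 1.1-2.1, DIGSA 1.0-2.0, AMARE 0.1-1.5, ORYSA 1.0-2). Formulated compound was applied at predetermined active-ingredient amounts in 500 L/ha water with 0.1% (v/v) spreader. Growth control (0–100%) was visually scored 20–23 days later.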

[12] = test system: crabgrass (Digitaria sanguinalis L.), DIGSA; experiment: Test Example 2 post-emergence (foliage treatment) herbicidal activity, DIGSA; conditions: 63 g a.i./ha
How it was run: as §2

[13] = test system: green foxtail (Setaria viridis L.), SETVI; experiment: Test Example 2 post-emergence (foliage treatment) herbicidal activity, SETVI; conditions: 63 g a.i./ha
How it was run: (§3)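 Each species was evaluated for growth suppression by eye, 0% matching untreated and 100% meaning death, some 20 to 23 days after a single post-emergence foliar treatment applied in 500 L/ha of water carrying 0.1% (v/v) agricultural spreader.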

[14] = test system: prickly sida (Sida spinosa L.), SIDSP; experiment: Test Example 2 post-emergence (foliage treatment) herbicidal activity, SIDSP; conditions: 63 g a.i./ha
How it was run: as §3

[15] = test system: velvetleaf (Abutilon theophrasti), ABUTH; experiment: Test Example 2 post-emergence (foliage treatment) herbicidal activity, ABUTH; conditions: 63 g a.i./ha
How it was run: as §3

[16] = test system: rice (Oryza sativa L.), ORYSA; experiment: Test Example 2 post-emergence (foliage treatment) herbicidal activity, ORYSA; conditions: 63 g a.i./ha
How it was run: as §2

[17] = test system: wheat (Triticum aestivum L.), TRZAX; experiment: Test Example 2 post-emergence (foliage treatment) herbicidal activity, TRZAX; conditions: 63 g a.i./ha
How it was run: as §3

[18] = test system: corn (Zea mays L.), ZEAMX; experiment: Test Example 2 post-emergence (foliage treatment) herbicidal activity, ZEAMX; conditions: 63 g a.i./ha
How it was run: as §3

[19] = test system: soybean (Glycine max Merr.), GLXMA; experiment: Test Example 2 post-emergence (foliage treatment) herbicidal activity, GLXMA; conditions: 63 g a.i./ha
How it was run: as §3

[20] = test system: barnyardgrass (Echinochiloa oryzicola: ECHOR); experiment: Test Example 3 water application herbicidal activity (paddy), ECHOR; conditions: 63 g a.i./ha, water application under submerged condition at 0.5 leaf stage, visually observed 14th day after application; 0 = untreated control, 100 = complete kill
From the text: (§4) Paddy field soil was put into a 1/1,000,000 ha pot and seeds of barnyardgrass (Echinochiloa oryzicola: ECHOR) and japanese bulrush (Scirpus juncoides: SCPJO) were sown and slightly covered with soil. Then the pot was left to stand still in a greenhouse in a state where the depth of flooding water was from 0.5 to 1 cm, and one day later, tubers of japanese ribbon wapato (Sagittaria pygmaea: SA GPY) were planted. Thereafter, the depth of flooding water was maintained at a level of from 3 to 4 cm, and when barnyardgrass and japanese bulrush reached a 0.5 leaf stage, an aqueous diluted solution of a wettable powder or emulsifiable concentrate having the compound of the present invention formulated in accordance with a usual formulation method, was uniformly applied under submerged condition by a pipette so that the dose of the active ingredient would be at a predetermined level. On the other hand, paddy filed soil was put into a 1/1,000,000 ha pot and puddled and leveled, and the depth of flooding water was from 3 to 4 cm. One day later, rice (Oryza sativa L.: ORYSA) of 2 leaf stage was transplanted in a depth of 3 cm. On the 4th day after the transplantation, the compound of the present invention was applied in the same manner as described above. On the 14th day after the application of the herbicide, the growth of barnyardgrass, japanese burlush and japanese ribbon wapato was visually observed and on the 21st day after the application of the herbicide, the growth of rice was visually observed, and the herbicidal effects were evaluated by growth controlling degrees (%) ranging from 0 (equivalent to the untreated control) to 100 (complete kill), whereby the results shown in Table 6, were obtained. Compound Nos. in Table 6 correspond to Compound Nos. in Table 1 and 2 given hereinbefore.

[21] = test system: japanese bulrush (Scirpus juncoides: SCPJO); experiment: Test Example 3 water application herbicidal activity (paddy), SCPJO; conditions: 63 g a.i./ha, water application under submerged condition at 0.5 leaf stage, visually observed 14th day after application; 0 = untreated control, 100 = complete kill
From the text: as §4

[22] = test system: japanese ribbon wapato (Sagittaria pygmaea: SA GPY); experiment: Test Example 3 water application herbicidal activity (paddy), SAGPY; conditions: 63 g a.i./ha, water application under submerged condition, tubers planted, visually observed 14th day after application; 0 = untreated control, 100 = complete kill
From the text: as §4

[23] = test system: rice (Oryza sativa L.: ORYSA); experiment: Test Example 3 water application herbicidal activity (paddy), transplanted rice ORYSA; conditions: 63 g a.i./ha, water application 4th day after transplantation of 2 leaf stage rice, visually observed 21st day after application; 0 = untreated control, 100 = complete kill
From the text: as §4

[24] = test system: redroot pigweed (Amaranthus retroflexus L.), AMARE; experiment: Test Example 2 post-emergence (foliage treatment) herbicidal activity, AMARE; conditions: 63 g a.i./ha
How it was run: as §2

Molecule | growth controlling degree, ECHCO [11] [%] | growth controlling degree, DIGSP [12] [%] | growth controlling degree, SETVI [13] [%] | growth controlling degree, SIDSP [14] [%] | growth controlling degree, ABUTH [15] [%] | growth controlling degree, ORYSA [16] [%] | growth controlling degree, TRZAX [17] [%] | growth controlling degree, ZEAMX [18] [%] | growth controlling degree, GLXMA [19] [%] | growth controlling degrees (%) ECHOR [20] [%] | growth controlling degrees (%) SCPJO [21] [%] | growth controlling degrees (%) ORYSA [23] [%] | further results
[3-chloro-6-[4-chloro-5-(difluoromethoxy)-1-methyl-1H-pyrazol-3-yl]-5-fluoro-2-methoxyphenyl]2-propynyl-formamide [Compound 1-7] | 50 | 10 | 70 | 100 | 100 | 40 | 10 | 40 | 50 | 95 | 60 | 20 | Pre-emergence Herbicidal Activity ECHCG (growth controlling degree) ([1]; Rate 125 g a.i./ha): 70%; Pre-emergence Herbicidal Activity DIGSP (growth controlling degree) ([2]; Rate 125 g a.i./ha): 100%; Pre-emergence Herbicidal Activity SETVI (growth controlling degree) ([3]; Rate 125 g a.i./ha): 95%; Pre-emergence Herbicidal Activity AMARE (growth controlling degree) ([4]; Rate 125 g a.i./ha): 100%; Pre-emergence Herbicidal Activity SIDSP (growth controlling degree) ([5]; Rate 125 g a.i./ha): 90%; Pre-emergence Herbicidal Activity ABUTH (growth controlling degree) ([6]; Rate 125 g a.i./ha): 80%; Pre-emergence Herbicidal Activity ORYSA (growth controlling degree) ([7]; Rate 125 g a.i./ha): 20%; Pre-emergence Herbicidal Activity TRZAX (growth controlling degree) ([8]; Rate 125 g a.i./ha): 20%; Pre-emergence Herbicidal Activity ZEAMX (growth controlling degree) ([9]; Rate 125 g a.i./ha): 0%; Pre-emergence Herbicidal Activity GLXMA (growth controlling degree) ([10]; Rate 125 g a.i./ha): 10%; growth controlling degrees (%) SAGPY [22]: 0%
COc1c(Cl)cc(F)c(-c2nn(C)c(OC(F)F)c2Cl)c1NC(=O)OCC(C)C [Compound 1-64] | 90 | 70 | 100 | 100 | 100 | 30 | 30 | 30 | 50 | 100 | 70 | 40 | Pre-emergence Herbicidal Activity ECHCG (growth controlling degree) ([1]; Rate 63 g a.i./ha): 40%; Pre-emergence Herbicidal Activity DIGSP (growth controlling degree) ([2]; Rate 63 g a.i./ha): 90%; Pre-emergence Herbicidal Activity SETVI (growth controlling degree) ([3]; Rate 63 g a.i./ha): 80%; Pre-emergence Herbicidal Activity AMARE (growth controlling degree) ([4]; Rate 63 g a.i./ha): 100%; Pre-emergence Herbicidal Activity SIDSP (growth controlling degree) ([5]; Rate 63 g a.i./ha): 80%; Pre-emergence Herbicidal Activity ABUTH (growth controlling degree) ([6]; Rate 63 g a.i./ha): 60%; Pre-emergence Herbicidal Activity ORYSA (growth controlling degree) ([7]; Rate 63 g a.i./ha): 10%; Pre-emergence Herbicidal Activity TRZAX (growth controlling degree) ([8]; Rate 63 g a.i./ha): 10%; Pre-emergence Herbicidal Activity ZEAMX (growth controlling degree) ([9]; Rate 63 g a.i./ha): 0%; Pre-emergence Herbicidal Activity GLXMA (growth controlling degree) ([10]; Rate 63 g a.i./ha): 0%; growth controlling degree, AMARE [24]: 100%
